From patent publication US8227428B2, “Anti-infammatory macrolide” (Glaxo Group Limited, priority 2009, dated 2012)

Assay: Stability in buffer solutions pH 2 to pH 8 at 25° C.
Assay type: physicochemical
Method: Stability in buffer solutions pH 2 to pH 8 at 25° C., and in bio-relevant media (SGF pH 1.6, Fasted SIF pH 6.5 and Fed SIF pH 5.0) at 37° C., during 24 hours is monitored. The samples are analysed by LC/MS.
Buffer Solutions and Physiologically Relevant Media Used in Stability Assay:
LC Conditions: Instrument HP1100
Column: Waters XBridge C18, 2.1×50 mm, 3.5 μm
Guard column: Waters XBridge C18, 2.1×10 mm, 3.5 μm
• A) 0.1% HCOOH/H2O • B) 0.1% HCOOH/CH3CN Gradient Timetable: […]
Flow: 0.3 mL/min Column temp.: 25° C. Sample temp.: 25° C. (for stability assay in buffer solutions) • 37° C. (for stability assay in bio-relevant media) Injector volume: 3 μL (without injection program) MS Conditions: Instrument HP MS API-ES, positive ion mode Mass Range: 150-1500 Fragmentor: 100 Gain: 1.0 Treshold: 150 Step size: 0.20 Gas Temperature: 350° C. Drying Gas Flow: 13 L/min Nebulizer Pressure: 35 psig Capillary Voltage Positive 4000 V • Negative 4000 V Sample Preparation: a) For Stability Assay in Buffer Solutions
Compounds are dissolved in CH3CN to produce a 1 mg/mL stock solution. The stock solution is diluted to a concentration of 0.2 mg/mL (1 mL solution in 4 mL buffer) with appropriate buffer to produce a working solution.
Each solution at each pH is then dispatched into vials that are sealed and stored at room temperature in order to be analyzed at the proper time point. Before analysis, pH values of prepared sample solutions are checked and adjusted if neccessary.

Question: Which “stability in buffers pH 2 to 8” value (25° C., during 24 hours) does the source give for `CC[C@H]1OC(=O)[C@H](C)[C@@H](O[C@H]2C[C@@](C)(OC)[C@@H](OC(=O)CN(CC)CC)[C@H](C)O2)[C@H](C)[C@@H](O[C@@H]2O[C@H](C)C[C@H](N(C)C)[C@H]2O)[C@](C)(OC)C[C@@H](C)C(=O)N[C@H](C)[C@@H](O)[C@]1(C)O` [Example 3, 4″-O-(2-diethylaminoethanoyl)-6-O-methyl-9a-aza-9a-homoerythromycin A] here?
Answer: showed stability

Question: And the “Percentage (Area %) of the compound observed in buffers” value (from here on “Percentage (Area %)”) (pH 2, 25° C., 2 h)?
Answer: 99.4 Area %

Question: What about the “Percentage (Area %)” value (pH 2, 25° C., 4 h) of the same molecule?
Answer: 99.5 Area %

Question: What about the “Percentage (Area %)” value (pH 2, 25° C., 6 h) of the same molecule?
Answer: 99.5 Area %

Question: What about the “Percentage (Area %)” value (pH 2, 25° C., 8 h) of the same molecule?
Answer: 99.5 Area %

Question: What about the “Percentage (Area %)” value (pH 2, 25° C., 12 h) of the same molecule?
Answer: 99.6 Area %

Question: What about the “Percentage (Area %)” value (pH 2, 25° C., 14 h) of the same molecule?
Answer: 99.6 Area %

Question: What about the “Percentage (Area %)” value (pH 2, 25° C., 18 h) of the same molecule?
Answer: 99.6 Area %

Question: What about the “Percentage (Area %)” value (pH 2, 25° C., 20 h) of the same molecule?
Answer: 99.5 Area %

Question: What about the “Percentage (Area %)” value (pH 2, 25° C., 22 h) of the same molecule?
Answer: 99.5 Area %

Question: What about the “Percentage (Area %)” value (pH 2, 25° C., 24 h) of the same molecule?
Answer: 99.5 Area %

Question: And the “Percentage (Area %)” value (pH 2, 25° C., Initial)?
Answer: 100 Area %

Question: What about the “Percentage (Area %)” value (pH 3, 25° C., 2 h) of the same molecule?
Answer: 99.8 Area %

Question: And the “Percentage (Area %)” value (pH 3, 25° C., 4 h)?
Answer: 99.6 Area %

Question: What about the “Percentage (Area %)” value (pH 3, 25° C., 6 h) of the same molecule?
Answer: 99.5 Area %

Question: And the “Percentage (Area %)” value (pH 3, 25° C., 8 h)?
Answer: 99.8 Area %

Question: What about the “Percentage (Area %)” value (pH 3, 25° C., 12 h) of the same molecule?
Answer: 99.6 Area %

Question: And the “Percentage (Area %)” value (pH 3, 25° C., 14 h)?
Answer: 99.8 Area %

Question: What about the “Percentage (Area %)” value (pH 3, 25° C., 18 h) of the same molecule?
Answer: 99.7 Area %

Question: And the “Percentage (Area %)” value (pH 3, 25° C., 20 h)?
Answer: 99.6 Area %

Question: What about the “Percentage (Area %)” value (pH 3, 25° C., 22 h) of the same molecule?
Answer: 99.4 Area %

Question: And the “Percentage (Area %)” value (pH 3, 25° C., 24 h)?
Answer: 99.4 Area %

Question: And the “Percentage (Area %)” value (pH 3, 25° C., Initial)?
Answer: 100 Area %

Question: And the “Percentage (Area %)” value (pH 4, 25° C., 2 h)?
Answer: 99.1 Area %

Question: And the “Percentage (Area %)” value (pH 4, 25° C., 4 h)?
Answer: 99.0 Area %

Question: And the “Percentage (Area %)” value (pH 4, 25° C., 6 h)?
Answer: 99.1 Area %

Question: What about the “Percentage (Area %)” value (pH 4, 25° C., 8 h) of the same molecule?
Answer: 99.2 Area %

Question: What about the “Percentage (Area %)” value (pH 4, 25° C., 12 h) of the same molecule?
Answer: 99.2 Area %

Question: And the “Percentage (Area %)” value (pH 4, 25° C., 14 h)?
Answer: 99.2 Area %

Question: What about the “Percentage (Area %)” value (pH 4, 25° C., 18 h) of the same molecule?
Answer: 99.2 Area %

Question: And the “Percentage (Area %)” value (pH 4, 25° C., 20 h)?
Answer: 98.9 Area %

Question: What about the “Percentage (Area %)” value (pH 4, 25° C., 22 h) of the same molecule?
Answer: 99.1 Area %

Question: And the “Percentage (Area %)” value (pH 4, 25° C., 24 h)?
Answer: 99.2 Area %

Question: And the “Percentage (Area %)” value (pH 4, 25° C., Initial)?
Answer: 100 Area %

Question: What about the “Percentage (Area %)” value (pH 5, 25° C., 2 h) of the same molecule?
Answer: 100 Area %

Question: And the “Percentage (Area %)” value (pH 5, 25° C., 4 h)?
Answer: 99.9 Area %

Question: And the “Percentage (Area %)” value (pH 5, 25° C., 6 h)?
Answer: 99.9 Area %

Question: And the “Percentage (Area %)” value (pH 5, 25° C., 8 h)?
Answer: 99.9 Area %

Question: What about the “Percentage (Area %)” value (pH 5, 25° C., 12 h) of the same molecule?
Answer: 99.9 Area %

Question: And the “Percentage (Area %)” value (pH 5, 25° C., 14 h)?
Answer: 99.9 Area %

Question: What about the “Percentage (Area %)” value (pH 5, 25° C., 18 h) of the same molecule?
Answer: 99.9 Area %

Question: And the “Percentage (Area %)” value (pH 5, 25° C., 20 h)?
Answer: 99.8 Area %

Question: And the “Percentage (Area %)” value (pH 5, 25° C., 22 h)?
Answer: 99.9 Area %

Question: And the “Percentage (Area %)” value (pH 5, 25° C., 24 h)?
Answer: 99.9 Area %

Question: What about the “Percentage (Area %)” value (pH 5, 25° C., Initial) of the same molecule?
Answer: 100 Area %

Question: And the “Percentage (Area %)” value (pH 6, 25° C., 2 h)?
Answer: 100 Area %

Question: What about the “Percentage (Area %)” value (pH 6, 25° C., 4 h) of the same molecule?
Answer: 100 Area %

Question: And the “Percentage (Area %)” value (pH 6, 25° C., 6 h)?
Answer: 100 Area %

Question: What about the “Percentage (Area %)” value (pH 6, 25° C., 8 h) of the same molecule?
Answer: 100 Area %

Question: What about the “Percentage (Area %)” value (pH 6, 25° C., 12 h) of the same molecule?
Answer: 99.9 Area %

Question: And the “Percentage (Area %)” value (pH 6, 25° C., 14 h)?
Answer: 99.8 Area %
